Earlier results in paper PMC10816276 (International Journal of Molecular Sciences, 2024).

Biological target: T1, Mushroom tyrosinase (mTyr) (Agaricus bisporus, UniProt C7FF04)
T1 construct: purchased Sigma-Aldrich
Conditions: substrate L-DOPA; cited from earlier work

T1 sequence (C7FF04 1-392): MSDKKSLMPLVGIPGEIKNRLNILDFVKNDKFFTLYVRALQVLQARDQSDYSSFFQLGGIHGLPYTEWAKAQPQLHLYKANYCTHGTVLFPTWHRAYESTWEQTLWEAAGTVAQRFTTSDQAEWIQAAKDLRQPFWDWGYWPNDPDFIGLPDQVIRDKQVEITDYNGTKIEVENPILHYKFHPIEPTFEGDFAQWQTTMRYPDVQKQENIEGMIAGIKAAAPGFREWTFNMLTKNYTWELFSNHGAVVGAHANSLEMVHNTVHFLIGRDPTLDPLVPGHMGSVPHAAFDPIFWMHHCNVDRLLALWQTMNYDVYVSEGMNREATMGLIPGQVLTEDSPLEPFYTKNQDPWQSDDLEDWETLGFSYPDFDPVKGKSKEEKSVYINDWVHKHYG

## OC[C@H]1O[C@@H](Oc2ccc(O)cc2)[C@H](O)[C@@H](O)[C@@H]1O [beta-arbutin, reference compound]
  inhibitory effect on the diphenolase activity of mTyr: no inhibitory effect
